Results as given in patent US20240398781A1, “SPIROCYCLIC CYCLIC MODULATORS OF CHOLESTEROL BIOSYNTHESIS AND THEIR USE FOR PROMOTING REMYELINATION” (GENENTECH, INC., priority 2021, published 2024).
pEC50, pKi: −log10 of the molar value. Read-outs that look alike come from different tables or passages of the source.

How the values were obtained:
[1] = biological target: human emopamil binding protein and human 7-dehydrocholesterol reductase co-expressing cells (hEBP-DHCR7 membrane) (Homo sapiens (Human), UniProt Q15125); assay: Radioligand filter binding assay on hEBP-DHCR7 membrane; details: [3H]-(S)-6-(2-Methyl-3-(6-(trifluoromethyl)pyridin-3-yl)propyl)-2-thia-6-azaspiro[3.4]octane 2,2-dioxide radioligand, HEK293 membrane co-expressing hEBP and hDHCR7
In short: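 HEK293 cells transiently co-expressing human EBP and DHCR7 supplied whole-cell membranes (10 μg/well), incubated 3 h at 22 °C with [3H]-labelled spiro-octane dioxide ligand (added at 25 nM) and compound (0.06-5000 nM final, 8 doses, n=2). Bound ligand was collected on PEI-treated GF/B filters and counted by scintillation. IC50 was Hill-fitted from % inhibition and reported as Ki.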

EpiSC-derived OPCs = assay: In vitro phenotypic screening of OPCs (MBP staining, high-content imaging); assay type: cell-based, mouse; details: percentage of MBP+ oligodendrocytes, 3 days, 0.5 nM to 1000 nM, read-out: OPC EC50
In short: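 Readout: high-content imaging of MBP immunostaining around DAPI nuclei, giving percent oligodendrocytes, with EC50 from a Levenberg-Marquardt Hill fit. Epiblast stem cell-derived OPCs were plated on laminin at 150,000/cm^2 in growth-factor-free N2B27. They were exposed 3 days to an 8-point series, 0.5-1000 nM final, in two or more independent platings.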

Sequence of human emopamil binding protein and human 7-dehydrocholesterol reductase co-expressing cells (hEBP-DHCR7 membrane) (Q15125 whole entry): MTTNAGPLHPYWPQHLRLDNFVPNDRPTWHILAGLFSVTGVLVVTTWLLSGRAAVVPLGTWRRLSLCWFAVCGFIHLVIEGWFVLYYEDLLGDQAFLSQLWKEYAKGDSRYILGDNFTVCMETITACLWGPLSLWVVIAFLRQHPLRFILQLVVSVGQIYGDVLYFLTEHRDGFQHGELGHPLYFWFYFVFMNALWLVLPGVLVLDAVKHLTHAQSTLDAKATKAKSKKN

| SMILES | pKi [1] | pEC50 (EpiSC-derived OPCs; Mus musculus, 72 h) | pEC50 (EpiSC-derived OPCs) |
| --- | --- | --- | --- |
| CC(C)n1nc(N2CC(F)(F)C2)cc1[C@H]1CC[C@H](N2CCC3(C2)CS(=O)(=O)C3)CC1 [Compound 35, 6-((1r,4r)-4-(3-(3,3-Difluoroazetidin-1-yl)-1-isopropyl-1H-pyrazol-5-yl)cyclohexyl)-2-thia-6-azaspiro[3.4]octane 2,2-dioxide] | 6.55 | 6.68 |  |
| O=S1(=O)CC2(CCN(C3CCN(c4ncc(C(F)(F)F)cc4F)CC3)C2)C1 [Compound 32, 6-(1-(3-fluoro-5-(trifluoromethyl)pyridin-2-yl)piperidin-4-yl)-2-thia-6-azaspiro[3.4]octane 2,2-dioxide] | 7.96 | 7.22 |  |
| Cc1nc(C(F)(F)F)ccc1N1CCC(N2CCC3(C2)CS(=O)(=O)C3)CC1 [Compound 29, 6-(1-(2-methyl-6-(trifluoromethyl)pyridin-3-yl)piperidin-4-yl)-2-thia-6-azaspiro[3.4]octane 2,2-dioxide] | 6.64 | 7.41 |  |
| CCn1nc(-c2ccc(C(F)(F)F)nc2)nc1[C@H]1CC[C@H](N2CCC3(C2)CS(=O)(=O)C3)CC1 [36A*, 6-((1r,4r)-4-(1-Ethyl-3-(6-(trifluoromethyl)pyridin-3-yl)-1H-1,2,4-triazol-5-yl)cyclohexyl)-2-thia-6-azaspiro[3.4]octane 2,2-dioxide] | 7.21 | 7.14 |  |
| CC(C)n1nc(-c2ccc(C(F)(F)F)nc2)nc1[C@H]1CC[C@H](N2CCC3(C2)CS(=O)(=O)C3)C1 (single isomer, unassigned) [17B*] | 7.44 | 7.66 |  |
| CCn1nc(-c2ccc(C(F)(F)F)nc2)nc1[C@H]1CC[C@@H](N2CCC3(C2)CS(=O)(=O)C3)CC1 [36B*, 6-((1s,4s)-4-(1-ethyl-3-(6-(trifluoromethyl)pyridin-3-yl)-1H-1,2,4-triazol-5-yl)cyclohexyl)-2-thia-6-azaspiro[3.4]octane 2,2-dioxide] | 6.59 | 7.14 |  |
| Cn1nc(C(F)(F)F)cc1[C@H]1CC[C@H](N2CC[C@@]3(CCS(=O)(=O)C3)C2)CC1 (single isomer, unassigned) [38D*] | 7.10 |  | 6.70 |
| O=S1(=O)CC2(CCN([C@H]3CC[C@@H](c4cc(C(F)(F)F)nn4C4CC4)CC3)C2)C1 [Compound 12B, 6-((1s,4s)-4-(1-Cyclopropyl-3-(trifluoromethyl)-1H-pyrazol-5-yl)cyclohexyl)-2-thia-6-azaspiro[3.4]octane 2,2-dioxide] | 7.49 | 6.62 |  |
| CC(C)n1nc(C(F)(F)F)cc1[C@H]1CC[C@H](N2CCC3(C2)CS(=O)(=O)C3)CC1 [Compound 8A, 6-((1r,4r)-4-(1-isopropyl-3-(trifluoromethyl)-1H-pyrazol-5-yl)cyclohexyl)-2-thia-6-azaspiro[3.4]octane 2,2-dioxide] | 7.47 | 7.15 |  |
| O=S1(=O)CC2(CCN([C@H]3CC[C@H](c4ccc(C(F)(F)F)cc4)CC3)C2)C1 [Compound 3A, 6-((1r,4r)-4-(4-(trifluoromethyl)phenyl)cyclohexyl)-2-thia-6-azaspiro[3.4]octane 2,2-dioxide] | 7.80 | 8.29 |  |
| Cc1cc(F)cnc1N1CCC(N2CCC3(C2)CS(=O)(=O)C3)CC1 [Compound 31, 6-(1-(5-fluoro-3-methylpyridin-2-yl)piperidin-4-yl)-2-thia-6-azaspiro[3.4]octane 2,2-dioxide] | 7.08 | 6.72 |  |
| O=S1(=O)CC2(CCN([C@H]3CO[C@@H](c4ccc(C(F)(F)F)cc4)C3)C2)C1 (stereo in doubt) [19A*, 6-((3R,5R)-5-(4-(Trifluoromethyl)phenyl)tetrahydrofuran-3-yl)-2-thia-6-azaspiro[3.4]octane 2,2-dioxide] | 7.68 | 6.85 |  |
| CC(C)n1nc(-c2ccc(C(F)(F)F)nc2)nc1[C@H]1CC[C@@H](N2CCC3(C2)CS(=O)(=O)C3)C1 (single isomer, unassigned) [17D*] | 7.19 | 7.85 |  |
